Laboratory results published in US11434221B2, “Pyrazine-4-carbamate or -urea derivatives as herbicides” (Syngenta Participations AG, priority 2017, dated 2022).

Assays:
Format in all cases: in vivo
Set-up in all cases: key: 5=total damage to plant; 0=no damage to plant
Setaria faberi (SETFA) [1] = experiment: Pre-emergence herbicidal activity, glasshouse pot test; conditions: Rate 1000 g/ha; sprayed one day after sowing; evaluated after 13 days
Outline: (§1)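 Seeds sown in standard soil were sprayed one day after sowing (pre-emergence) with active ingredient formulated in acetone/water (50:50) containing 0.5% Tween 20. Plants were grown in a glasshouse (24/16 °C day/night, 14 h light, 65% humidity) and watered twice daily. Damage was scored after 13 days on a 0–5 scale (5 = total damage, 0 = none).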

Avena fatua (AVEFA) [2] = experiment: as above; conditions: Rate 1000 g/ha; sprayed one day after sowing; evaluated after 13 days
Outline: as §1

[3] = system: Triticum aestivium (TRZAW); experiment: as above; conditions: Rate 1000 g/ha; sprayed one day after sowing; evaluated after 13 days
Outline: as §1

[4] = system: Echinochloa crus-galli (ECHCG); experiment: as above; conditions: Rate 1000 g/ha; sprayed one day after sowing; evaluated after 13 days
Outline: as §1

Lolium perenne (LOLPE) [5] = experiment: as above; conditions: Rate 1000 g/ha; sprayed one day after sowing; evaluated after 13 days
Outline: as §1

[6] = system: Alopecurus myosuroides (ALOMY); experiment: as above; conditions: Rate 1000 g/ha; sprayed one day after sowing; evaluated after 13 days
Outline: as §1

Setaria faberi (SETFA) [7] = experiment: Post-emergence herbicidal activity, glasshouse pot test; conditions: Rate 1000 g/ha; sprayed after 8 days cultivation; evaluated after 13 days
Outline: (§2)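 Seedlings raised in standard soil under controlled glasshouse conditions received a foliar spray of the formulated compound after 8 days of cultivation. They were then kept at 24/16° C with 14 hours light and 65% humidity. Injury was assessed after 13 days, from 0 for no damage to 5 for total damage.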

Avena fatua (AVEFA) [8] = experiment: as above; conditions: Rate 1000 g/ha; sprayed after 8 days cultivation; evaluated after 13 days
Outline: as §2

[9] = system: Triticum aestivium (TRZAW); experiment: as above; conditions: Rate 1000 g/ha; sprayed after 8 days cultivation; evaluated after 13 days
Outline: as §2

[10] = system: Echinochloa crus-galli (ECHCG); experiment: as above; conditions: Rate 1000 g/ha; sprayed after 8 days cultivation; evaluated after 13 days
Outline: as §2

Lolium perenne (LOLPE) [11] = experiment: as above; conditions: Rate 1000 g/ha; sprayed after 8 days cultivation; evaluated after 13 days
Outline: as §2

[12] = system: Alopecurus myosuroides (ALOMY); experiment: as above; conditions: Rate 1000 g/ha; sprayed after 8 days cultivation; evaluated after 13 days
Outline: as §2

CC(C)(C)OC(=O)Nc1ncc(-c2cncnc2)nc1C(F)F [Compound H30]
Control of weed species after pre-emergence application, SETFA (damage score 0-5) (Setaria faberi (SETFA) [1]): 4 | Control of weed species after pre-emergence application, AVEFA (damage score 0-5) (Avena fatua (AVEFA) [2]): 0 | Control of weed species after pre-emergence application, TRAZW (damage score 0-5) [3]: 1 | Control of weed species after pre-emergence application, ECHCG (damage score 0-5) [4]: 3 | Control of weed species after pre-emergence application, LOLPE (damage score 0-5) (Lolium perenne (LOLPE) [5]): 1 | Control of weed species after pre-emergence application, ALOMY (damage score 0-5) [6]: 0 | Control of weed species after post-emergence application, SETFA (damage score 0-5) (Setaria faberi (SETFA) [7]): 4 | Control of weed species after post-emergence application, AVEFA (damage score 0-5) (Avena fatua (AVEFA) [8]): 3 | Control of weed species after post-emergence application, TRAZW (damage score 0-5) [9]: 1 | Control of weed species after post-emergence application, ECHCG (damage score 0-5) [10]: 4 | Control of weed species after post-emergence application, LOLPE (damage score 0-5) (Lolium perenne (LOLPE) [11]): 2 | Control of weed species after post-emergence application, ALOMY (damage score 0-5) [12]: 1

CC(C)(C)OC(=O)N(C(=O)OC(C)(C)C)c1ncc(-c2cncnc2)nc1C(F)F [Compound H31]
Control of weed species after pre-emergence application, SETFA (damage score 0-5) (Setaria faberi (SETFA) [1]): 2 | Control of weed species after pre-emergence application, AVEFA (damage score 0-5) (Avena fatua (AVEFA) [2]): 1 | Control of weed species after pre-emergence application, TRAZW (damage score 0-5) [3]: 0 | Control of weed species after pre-emergence application, ECHCG (damage score 0-5) [4]: 2 | Control of weed species after pre-emergence application, LOLPE (damage score 0-5) (Lolium perenne (LOLPE) [5]): 0 | Control of weed species after pre-emergence application, ALOMY (damage score 0-5) [6]: 2 | Control of weed species after post-emergence application, SETFA (damage score 0-5) (Setaria faberi (SETFA) [7]): 5 | Control of weed species after post-emergence application, AVEFA (damage score 0-5) (Avena fatua (AVEFA) [8]): 3 | Control of weed species after post-emergence application, TRAZW (damage score 0-5) [9]: 1 | Control of weed species after post-emergence application, ECHCG (damage score 0-5) [10]: 5 | Control of weed species after post-emergence application, LOLPE (damage score 0-5) (Lolium perenne (LOLPE) [11]): 2 | Control of weed species after post-emergence application, ALOMY (damage score 0-5) [12]: 1
